Measurements from patent publication US20250312409A1, “METHODS OF TREATING DILATED CARDIOMYOPATHY AND HEART FAILURE” (ARIZONA BOARD OF REGENTS ON BEHALF OF THE UNIVERSITY OF …, priority 2022, published 2025).
Values joined by “and” are separate entries in the source; they are usually repeats but may differ in a detail not shown here. Equal values may be shown once. Non-standard residues stand in square brackets, D forms with d. Residues, ends and D or L forms follow the SMILES beside them. *: point of attachment. dPhe(4-NHCONH2) = NC(=O)Nc1ccc(C[C@@H](N)C(=O)O)cc1; Dihydroorotyl(S) = O=C1C[C@@H](C(=O)*)NC(=O)N1; dPhe(4-Cl) = N[C@H](Cc1ccc(Cl)cc1)C(=O)O; Phe(4-NH2) = Nc1ccc(C[C@H](N)C(=O)O)cc1; d2Nal = N[C@H](Cc1ccc2ccccc2c1)C(=O)O; Lys(iPr) = CC(C)NCCCC[C@H](N)C(=O)O; d3Pal = N[C@H](Cc1cccnc1)C(=O)O

Key:
castrated male DCM mice = assay: Partial restoration of T (implanted pellets) in castrated DCM mice; assay type: in vivo, mouse
Method: Ejection fraction (EF, %) was analyzed in littermate DCM male mice (on C57BL/6J background) at 20 weeks of age corresponding to Stage D heart failure (HF) in non-castrated DCM mice. […] Dotted line: level in WT congenic group (n=8). T plasma levels analyzed by ELISA. Data analyzed by One-way-ANOVA with Tukey's multiple comparison test and represent mean+/−SEM; *=between DCM groups; **P<0.001; +=DCM groups vs. WT group: ++++P<0.0001.
FIGS. 2A-2B show lowering testosterone (T) levels increases cGMP levels in plasma (FIG. 2A) and cytosol fraction of cardiac LV extract (FIG. 2B) of male DCM mice. cGMP was analyzed in littermate mice by ELISA; data were normalized to 100 ug of total protein in extracts. Groups: at 20 weeks of age=Stage D heart failure (HF) in non-castrated DCM mice. […] Dotted line: level in WT congenic group (n=8). T plasma levels analyzed by ELISA. Data analyzed by One-way-ANOVA with Tukey's multiple comparison test and represent mean+/−SEM; *=between DCM groups; **P<0.001; +=DCM groups vs. WT group: ++++P<0.0001.
Referring to FIG. 1, T suppression in male DCM mice (low level) by surgical castration (initiated at HF stage A) improves systolic dysfunction vs. non-castrated DCM group (normal level).

male WT mice (C57BL/6J) = assay: Degarelix treatment of WT control mice (EF, plasma ANP and cGMP); assay type: in vivo, mouse; settings: male WT vs untreated WT group
Method: (§1) Treatment was initiated at 4 weeks of age when mice were at risk for DCM. The EF was analyzed at 20 weeks when DCM untreated mice progressed to Stage D HF. […] This treatment also elevated EF in males WT vs. untreated WT group (Mann-Whitney test: P<0.01).

humans and mice = settings: cited from earlier work
male DCM mice [1] = assay: Degarelix treatment in progressive DCM mouse model: cardiac function, remodeling, edema, HF; assay type: in vivo
Method: Ejection fraction (EF, %) (FIG. 4A), heart-to-body weight ratios, HW/BW (FIG. 4B), lung-to-body weight ratios, LW/BW, (FIG. 4C) and pleural effusion, (FIG. 4D) were analyzed in male mice with DCM and WT control mice (C57BL/6J) at 20 weeks of age corresponding to Stage D HF in non-treated DCM mice. Groups: Normal non-T-treated DCM mice (black, left bar); Low T (˜20%) DCM mice treated with degarelix, 15 mg/kg subcutaneous injection every 4 weeks (blue, right bar). Dotted line: Levels in WT congenic group (n=8). T plasma level analyzed by ELISA. Data (FIG. 4A-4C) analyzed by One-way-ANOVA with Tukey's multiple comparison test and represent mean t SEM. (FIG. 4D) analyzed by Fisher exact test.
To gain translational insights relevant to human DCM-HF, inventors analyzed the outcome of T-lowering therapy in a well-established mouse progressive DCM model on C57BL/6J strain with defined age-related HF stages (time points) for evaluation of systolic function, edema, blood sample collections, etc., in studies of male and female DCM mice. This animal model is normotensive and without kidney dysfunction, and arrhythmia, which excludes variables of blood pressure, arrhythmias, and kidney dysfunction.
as §1

male DCM mice [2] = assay: Plasma biomarkers (ELISA) in degarelix-treated DCM mice; assay type: in vivo, mouse; settings: 20 weeks of age
Method: Ejection fraction (EF, %) (FIG. 4A), heart-to-body weight ratios, HW/BW (FIG. 4B), lung-to-body weight ratios, LW/BW, (FIG. 4C) and pleural effusion, (FIG. 4D) were analyzed in male mice with DCM and WT control mice (C57BL/6J) at 20 weeks of age corresponding to Stage D HF in non-treated DCM mice. Groups: Normal non-T-treated DCM mice (black, left bar); Low T ( 20%) DCM mice treated with degarelix, 15 mg/kg subcutaneous injection every 4 weeks (blue, right bar). Dotted line: Levels in WT congenic group (n=8). T plasma level analyzed by ELISA. Data (FIG. 4A-4C) analyzed by One-way-ANOVA with Tukey's multiple comparison test and represent mean t SEM. (FIG. 4D) analyzed by Fisher exact test. […] Groups: at 20 weeks of age=Stage D HF in non-castrated DCM mice. Normal T (100%) non-treated DCM mice (black, left bar); Low T ( 17%) castrated or degarelix-treated DCM mice (blue, right bar); Dotted line: Levels in WT congenic group (n=6-8). T plasma level analyzed by ELISA. Data analyzed by One-way-ANOVA with Tukey's multiple comparison test and represented as mean f SEM; +++P<0.001 in DCM vs. WT group; ****P<0.0001 in castrated vs non-castrated DCM groups. […] Plasma biomarkers levels were analyzed in littermate mice with and without DCM. […] Groups: Normal T, non-treated DCM mice (black, left bar); Low T ( 20%), DCM mice treated with degarelix, 15 mg/kg subcutaneous injection every 4 weeks (blue, right bar). Dotted line: level in WT congenic group (n=6). T plasma level analyzed by ELISA. Data analyzed by One-way-ANOVA with Tukey's multiple comparison test and represent mean t SEM; *=between DCM groups: **P<0.01; DCM groups vs. WT group: ++++P<0.0001; +++P<0.001.

[3] = system: male and female mice with DCM and WT littermates; settings: mouse, in vivo

In the case of `C[C@]12CC[C@H]3[C@@H](CCC4=CC(=O)CC[C@@]43C)[C@@H]1CC[C@@H]2O` [T, testosterone], the “cGMP levels in plasma” value (castrated male DCM mice; Reduced T vs Low T castrated DCM mice, FIG. 2A) is reported as “lowered cGMP levels”, the “cGMP levels in cardiac LV tissue” value (castrated male DCM mice; Reduced T vs Low T castrated DCM mice, FIG. 2B) is reported as “lowered cGMP levels” and the “T plasma level (relative to Normal T, 100%)” value (castrated male DCM mice; castrated DCM mice with partially restored T, 20 weeks of age, ELISA) is reported as roughly 60%. The “Ejection fraction (EF)” value (castrated male DCM mice; castrated DCM mice, implanted pellets for 3 months, vs castrated (Low T), FIG. 1) was “trend toward reduced EF”.

In the case of `CC(=O)N[C@H](Cc1ccc2ccccc2c1)C(=O)N[C@H](Cc1ccc(Cl)cc1)C(=O)N[C@H](Cc1cccnc1)C(=O)N[C@@H](CO)C(=O)N[C@@H](Cc1ccc(NC(=O)[C@@H]2CC(=O)NC(=O)N2)cc1)C(=O)N[C@H](Cc1ccc(NC(N)=O)cc1)C(=O)N[C@@H](CC(C)C)C(=O)N[C@@H](CCCCNC(C)C)C(=O)N1CCC[C@H]1C(=O)N[C@H](C)C(N)=O` [degarelix] (Ac-[d2Nal][dPhe(4-Cl)][d3Pal]S[Phe(4-NH2)](Dihydroorotyl(S))[dPhe(4-NHCONH2)]L[Lys(iPr)]P[dA]-NH2), the “Ejection fraction (EF)” value (male WT mice (C57BL/6J); Mann-Whitney P<0.01) is reported as “elevated EF”, the “plasma ANP levels” value (male WT mice (C57BL/6J); P<0.001 Mann-Whitney) is reported as “elevated ANP and cGMP plasma levels” and the “plasma cGMP levels” value (male WT mice (C57BL/6J); P<0.001 Mann-Whitney) is reported as “elevated ANP and cGMP plasma levels”. The “circulating T levels” value (humans and mice; humans and mice, reversible, without T surge and clinical side effects) was “to surgical castration level”, the muscle mass (humans and mice; in vivo) was “does not affect muscle mass” and the “heart failure (HF)” value (male DCM mice [1]; 20 weeks of age) was “attenuates HF”. The “heart-to-body weight ratio, HW/BW” value (male DCM mice [1]; 20 weeks of age, FIG. 4B, P<0.001) was “reduces pathologically elevated heart”, the “lung-to-body weight ratio, LW/BW (pulmonary edema)” value (male DCM mice [1]; 20 weeks of age, FIG. 4C, P<0.01) was “reduced pulmonary edema” and the pleural effusion (male DCM mice [1]; 20 weeks of age, FIG. 4D, P<0.05, Fisher exact test) was “reduction”. For the same compound, the “Ejection fraction (EF)” value (male DCM mice [1]; treatment from 4 weeks of age, analyzed at 20 weeks (Stage D HF in untreated), vs untreated DCM, FIG. 4A) was “significantly improved EF”, the plasma norepinephrine levels (male DCM mice [2]; FIG. 5A) was “lowering norepinephrine plasma levels” and the “plasma renin activity (PRA) levels” value (male DCM mice [2]; FIG. 5C) was “normalization of PRA levels”. The “pro-renin receptor ((P)RR) levels” value (male DCM mice [2]; FIG. 5E) was “normalization of (P)RR levels”, the “total renin levels in circulation” value (male DCM mice [2]; FIG. 5F) was “did not affect total renin levels” and the “plasma ANP levels (analyzed as NT-ANP)” value (male DCM mice [2]; degarelix 15 mg/kg s.c. every 4 weeks, FIG. 6A) was “increases plasma levels of ANP”. The “plasma cGMP levels” value (male DCM mice [2]; degarelix 15 mg/kg s.c. every 4 weeks, FIG. 6B) was “increases plasma levels”, the “T plasma level (relative to Normal T, 100%)” value (male DCM mice [2]; degarelix 15 mg/kg subcutaneous every 4 weeks, ELISA) was ~20% and ~17% and the body weights [3] was “did not influence”. The motor function [3] was “did not influence”.
